Data set [1] deals with JH esterase. Briefly: JH esterase inhibition in T. ni hemolymph. The data set is classed as biochemical, Trichoplusia ni. Particulars: for IC50: diluted T. ni larval plasma, 10 min preincubation at 30° C., 5×10^-6 M JH III, read-out: I50 (M) JHE. As to the method:
JH esterase activity was monitored in the hemolymph collected from last stadium day two larvae of the cabbage looper, Trichoplusia ni, Lepidoptera, Noctuidae. The plasma was diluted (v/v) in sodium phosphate buffer (pH 7.4, 0.08M with 0.01% [w/v] phenyulthiourea) and frozen at -60° C. until used. The inventive compounds were added in 1μ liter of ethanol to 100μ liters of the diluted plasma and preincubated for 10 min at 30° C. before adding substrate (ClO^3 H JH III New England Nuclear and unlabeled E, E JH III, Calbiochem) in 1μ liter of ethanol to give a final concentration of 5×10^-6 M JH III containing about 30,000 dpm/assay (Hammock and Sparks, Anal. Biochem. 82, 573 (1977).
(§1) In each case, at least three replicates of each inhibitor concentration were used. A minimum of two inhibitor concentrations showing greater and less than 50% inhibition were used to determine the I50 values from semilog plots except in the case of weaker inhibitors. Only those points on the apparently linear portion of the curve were used to calculate the I50 's.

Data set [2] has as its system T. ni larvae. Briefly: topical treatment of T. ni larvae, time of pupation. Type of data set: in vivo, Trichoplusia ni. The following applies: for delay of pupation versus ethanol controls: 0.1 and 0.2μ mole per application, 3 times per day, L5D1 and D2, topical; for delay of pupation: topical. As to the method: (§2) T. ni larvae are treated with 1 or 2μ liters of ethanol, with TFPOS, wit o-ethyl-S-phenyl phosphoramidothiolate (EPPAT), or with 1,1,1-trifluorotetradecan-2-one (TFT) in 1×10^-1 M ethanol solutions on the dorsum of the thorax three times per day (4, 12 and 17 hr after lights on) during the first two days of the last larval stadium. The insects were held under standard rearing conditions (27° C., 14 hr light, 10 hr dark). The time of pupation was checked daily at 4 hr after lights on and the pupae were checked for successful emergence two weeks later.
(§3) Larvae were treated on the dorsum of the thorax with 1 or 2μ liters of ethanol (control) and with 1 or 2μ liters, respectively, of 10^-1 M TFT, TFPOS, DTFT or EPPAT in ethanol, 3 times per day at 4, 12 and 17 h ALO (after lights on) on L5Dl and D2. Time of pupation was checked daily at 4 h ALO, and emergence was checked 2 weeks after treatment. L5Dl larvae 4 h ALO were also treated, but only once with 1μ liter ethanol or with 1μ liter of 10-1 M TFT, TFPOS, or EPPAT in ethanol, and then were bled at 1, 8, 12, 23, 28, or 32 h after treatment. Hemolymph was collected from five larvae, mixed and frozen at -60° C. until assayed for JHE and α-NAE activity. […] Death usually occured during the larval-pupal transformation, with the control mortality at 2μ liters of ethanol being 1%, TFT at 0.2M being 6%, an TFPOS being 4%.

Data set [3] deals with T1, Type VI-S electric eel AChE (Electrophorus electricus, UniProt O42275).
T1 construct: purchased Sigma Type VI-S
Briefly: acetylcholinesterase (AChE) activity. Type of data set: biochemical. As to the method:
For acetylcholinesterase (AChE) activity, 20μ liters of acetylthiocholine iodide (Sigma) in sodium phosphate buffer (0.05M, ph 7.2) was added to Type VI-S electric eel AChE (Sigma, 10 ng with 2-400 units/mg protein) in 3 ml the same buffer to give a final substrate concentration of 5×10^-4 M. The assay was run at 37° C.
(§4) For AChE, trypsin and α-ChT, the inhibitor was added to ethanol 10 min prior to the substrate and preincubated at the same temperature used for the actual assay. In no case was greater than 1% v/v ethanol added, and ethanol controls were always run. For the spectrophotometric enzyme assays, initial studies were run on a Varian-Cary 219 UV/visible spectrophotometer, while subsequent assays were run on a Gilford manual EIA reading using disposable cuvettes.
as §1

Data set [4] concerns the target T2, bovine pancreatic type III trypsin (Bos taurus, UniProt P00760).
T2 construct: purchased Sigma type III
T2 sequence (P00760 24-246): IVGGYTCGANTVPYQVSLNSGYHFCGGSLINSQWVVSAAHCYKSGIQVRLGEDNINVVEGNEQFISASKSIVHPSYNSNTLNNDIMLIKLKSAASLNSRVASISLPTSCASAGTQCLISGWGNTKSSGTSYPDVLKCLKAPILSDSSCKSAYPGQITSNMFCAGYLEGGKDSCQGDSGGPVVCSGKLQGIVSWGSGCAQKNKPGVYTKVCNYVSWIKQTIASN
Put plainly: trypsin activity. Type of data set: biochemical. As to the method:
For trypsin, 1.5 ml of p-toluenesulfonyl-L-arginine methyl ester (Sigma) in Tris HCl buffer (pH 8.1, 0.04M with 0.1M CaCl2) was added to 1.5 ml of the same buffer containing bovine pancreatic type III trypsin (Sigma, 0.24 μg) to give a final substrate concentration of 1×10^-4 M. The assay was performed at 25° C.
as §4, §1

Data set [5] deals with T. ni JHE. Put plainly: in vivo inhibition of T. ni JHE after topical application. Also noted: species or system Trichoplusia ni. The following applies: for maximum percent inhibition obtainable after treatment / selectivity for JHE in vivo: compared with EPPAT; for time of maximum inhibition of T. ni JHE after topical application: single dose 0.1μ moles/larve. As to the method:
as §3
In another study, the in vivo inhibition of T. ni JHE following a single dose (0.1μ moles/larve) of EPPAT and TFPOS respectively was monitored. Maximum inhibition of T. ni JHE was obtained one hour after topical application for each.

Data set [6] deals with T. ni JHE. Put plainly: removal of inhibitor by dialysis (reversibility of inhibition). Particulars: for enzyme activity after dialysis: 48 hours after starting the dialysis. The data set is classed as biochemical, Trichoplusia ni.
Data set [7] deals with T. ni larvae. Put plainly: mortality of T. ni larvae after repeated topical applications. The data set is classed as in vivo, Trichoplusia ni. As to the method: as §2, §3
For the next data set, the system named is α-NAE. Put plainly: α-Naphtyl acetate (α-NA) hydrolysis in T. ni prepupal hemolymph. The data set is classed as biochemical, Trichoplusia ni. The following applies: hemolymph of T. ni prepupae, substrate 2.3×10^-4 M; read-out: I50 (M) α-NAE. As to the method: α-Naphtyl acetate (α-NA) hydrolysis was monitored similarly in the hemolymph of prepupae of T. ni (fifth stadium, day 4) with a final substrate of 2.3×10^-4 M. Plasma dilutions and incubation times were chosen to give a hydrolysis rate which was linear with time.
as §1

The next data set relates to clofibrate esterase. Briefly: hydrolysis of clofibrate by microsomal protein. The data set is classed as biochemical, human. From the text: The drug clofibrate (α-[4-chlorophenoxy)-α-methylpropionate; Atromid-S) is one of a class of compounds given to heart patients as a hypolipidemic agent.
In data set [8] the test system is JH esterase. Particulars: crude juvenile hormone esterase from the cabbage looper; cited from earlier work.
The test system of data set [9] is T. ni larvae. Particulars: cited from earlier work.
Where [10] appears, read: acetylthiocholine iodide 5×10^-4 M, 37° C., * = greater than, read-out: I50 (M) AChE.
Where [11] appears, read: p-toluenesulfonyl-L-arginine methyl ester 1×10^-4 M, 25° C., read-out: I50 (M) Trypsin (*greater than).

The structures appear in SMILES notation. “Also recorded” adds a separate entry of the source. Like-named read-outs stand apart in the source and are kept apart here.

In general, mortality refers to the percentage killed. Higher therefore signals fewer survivors.

T1 sequence (O42275 24-633): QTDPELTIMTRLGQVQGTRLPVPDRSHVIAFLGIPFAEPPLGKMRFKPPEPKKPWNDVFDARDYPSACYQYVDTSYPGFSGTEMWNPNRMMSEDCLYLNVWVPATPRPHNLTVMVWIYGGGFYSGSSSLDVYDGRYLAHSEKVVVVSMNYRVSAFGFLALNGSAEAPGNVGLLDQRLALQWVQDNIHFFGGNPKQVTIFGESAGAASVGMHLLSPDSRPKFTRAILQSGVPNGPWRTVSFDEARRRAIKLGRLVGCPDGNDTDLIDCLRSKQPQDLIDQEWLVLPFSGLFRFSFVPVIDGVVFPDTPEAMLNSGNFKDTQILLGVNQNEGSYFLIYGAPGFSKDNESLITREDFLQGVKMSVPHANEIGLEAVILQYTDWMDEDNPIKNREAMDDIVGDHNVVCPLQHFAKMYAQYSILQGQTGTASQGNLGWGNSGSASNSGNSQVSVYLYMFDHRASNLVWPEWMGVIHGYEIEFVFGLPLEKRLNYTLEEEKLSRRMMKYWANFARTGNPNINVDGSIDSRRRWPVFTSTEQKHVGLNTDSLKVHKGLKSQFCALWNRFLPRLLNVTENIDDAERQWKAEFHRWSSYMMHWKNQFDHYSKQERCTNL

With `CCCCCCCCSCC(=O)C(F)(F)F` [Compound 1, 1,1,1-Trifluoro-3-thioocytylpropan-2-one], the “inhibition I50 value, juvenile hormone esterases” value against JH esterase [1] (in words) is listed as “nanomolar range”. Besides, in the data set with JH esterase [1] (versus TFT), the “times more active in vitro for juvenile hormone esterase than TFT” value is “over 40 times”. Also, in the data set on T. ni larvae [2] (listed as TFPOS), the “delay of pupation versus ethanol controls” value is listed as “pupation was delayed with respect to the controls in a dose-dependent manner”. In the data set on T. ni larvae [2] (0.2μ moles/application), the delay of pupation result is listed as “more dramatic”. For the same compound, the in vivo activity entry in the data set on T. ni larvae [2] (in vivo) is given as “pronounced in vivo activity”. Further, the delay of pupation result in the data set with T. ni larvae [2] (repeated doses of 0.1μ moles, first two days of last larval stadium) is reported as “effective in delaying the pupation”. Also, the IC50 in data set [3] (setting [10]) stood at 2.3e-06 M. The IC50 in [4] (setting [11]) was over 1e-05 M. Also, in the data set with T. ni JHE [5], the “maximum percent inhibition obtainable after treatment” value was “as effective”, the “selectivity for JHE in vivo” value is “more selective for JHE in vivo than EPPAT” and the “time of maximum inhibition of T. ni JHE after topical application” value is on record as “one”. The “enzyme activity after dialysis” value in the data set on T. ni JHE [6] is “restored gradually to the same activity as in the uninhibited enzyme”. In the data set on T. ni JHE [6] (dialysis), the t0.5 of reactivation entry is “more than 20 hours” and the “type of inhibition of T. ni JHE” value is listed as “reversible inhibitors”. This compound also had a mortality at 0.2 µmol/application in the data set with T. ni larvae [7] (Trichoplusia, topical, repeated applications of 2μ liters (0.2 moles/application), Example VIII) of 4%. In the data set with T. ni larvae [7] (repeated 1μ liter applications of 1×10^-1 M solution), the mortality result is “No mortality”. The IC50 in the data set with α-NAE turned out to be 1.2e-06 M.
Consider `CCCCCCCCCSCC(=O)C(F)(F)F` [Compound 2], for which the IC50 is 3.7e-09 M on JH esterase [1], 9.3e-07 M in data set [3] (setting [10]), over 0.0001 M in data set [4] (setting [11]) and 6.3e-06 M with α-NAE.
The corresponding values for `CCCCCCCCCCSCC(=O)C(F)(F)F` [Compound 3] are 2e-08 M, 3.2e-06 M, 8.2e-05 M and 1e-05 M.
On the same counts, the results for `CCCCCCCCCCCSCC(=O)C(F)(F)F` [Compound 4] are 4.3e-08 M, 2.6e-06 M, over 0.0001 M and 4.5e-05 M.
The corresponding values for `CCCCCCCCCCCCSCC(=O)C(F)(F)F` [Compound 5] are 1.5e-08 M, 2.2e-06 M, over 0.0001 M and 9.7e-05 M.
`O=C(CSC1CCCCC1)C(F)(F)F` [Compound 6]: the IC50 is 5.2e-06 M at JH esterase [1], 1.8e-06 M in data set [3] (setting [10]), over 0.0001 M in data set [4] (setting [11]) and 7.1e-07 M with α-NAE.
Regarding `Cc1ccccc1SCC(=O)C(F)(F)F` [Compound 9], the IC50 on JH esterase [1] stood at 4.3e-06 M; in data set [3] (setting [10]) it was 3.7e-07 M; in data set [4] (setting [11]), 8.5e-05 M; with α-NAE it was 6e-07 M.
The corresponding values for `Cc1ccc(SCC(=O)C(F)(F)F)cc1` [Compound 11] are 1.1e-07 M, 6.1e-07 M, over 0.0001 M and 1.6e-06 M.
On the same counts, the results for `CC(C)c1ccccc1SCC(=O)C(F)(F)F` [Compound 12] are 3.4e-07 M, 4.9e-08 M, 4.7e-05 M and 2.7e-07 M.
`O=C(CSc1ccc(Cl)cc1)C(F)(F)F` [Compound 19]: the Wilkinson kinetics entry with clofibrate esterase (clofibrate hydrolysis) is “curves expected for a slowly reversible inhibitor”. Further, the “effect on hydrolysis of clofibrate” value in the data set on clofibrate esterase (low concentrations, Vm 104 nmol/min mg microsomal protein, Km 5.5 mM, ethanol release) is reported as “significant delay in reacting maximal velocity”.
Turning to `O=C(CSc1ccc(Br)cc1)C(F)(F)F` [Compound 20], the IC50 at JH esterase [1] is 4.1e-07 M; in data set [3] (setting [10]), 2.4e-06 M; in data set [4] (setting [11]) it was over 1e-05 M; with α-NAE, 4.9e-06 M.
For the compound `CC(C)=CCC/C(C)=C/CCSCC(=O)C(F)(F)F` [Compound 31, (E)-8,12-dimethyl-4-thia-1,1,1-trifluorotrideca-7,11-dien-2-one], the IC50 on JH esterase [1] is 3.2e-09 M; in [3] (setting [10]), 6.2e-05 M; in data set [4] (setting [11]), over 0.0001 M; in the data set with α-NAE, 7.2e-07 M. Further, the “delay of pupation versus ethanol controls” value with T. ni larvae [2] (listed as DTFT) was “pupation was delayed with respect to the controls in a dose-dependent manner”. In addition, the “maximum percent inhibition obtainable after treatment” value in the data set with T. ni JHE [5] was “as effective”. Also, the “selectivity for JHE in vivo” value in the data set with T. ni JHE [5] is listed as “more selective for JHE in vivo than EPPAT”.
In the case of `COC(C)(C)CCC/C(C)=C/CCSCC(=O)C(F)(F)F` [Compound 32, (E)-8,12-Dimethyl-12-methoxy-4-Thia-1,1,1-trifluorotridec-7-en-2-one], the IC50 on JH esterase [1] was 3.1e-09 M; in data set [3], over 0.0001 M; in [4], over 0.0001 M; in the data set on α-NAE, 1.9e-06 M.
As to `CCOP(N)(=O)Sc1ccccc1` (stereo not shown) [EPPAT, O-ethyl-S-phenyl phosphoramidothiolate, reference compound], the “delay of pupation versus ethanol controls” value with T. ni larvae [2] is listed as “delayed preparation at both doses; also recorded: pupation was delayed with respect to the controls in a dose-dependent manner”. Also, the “persistence of in vivo inhibition” value in the data set on T. ni JHE [5] (compared with TFPOS and DTFT) was “more persistent”. For the same compound, the “time of maximum inhibition of T. ni JHE after topical application” value with T. ni JHE [5] is given as “one”. Besides, the “enzyme activity after dialysis” value in the data set on T. ni JHE [6] is listed as “almost complete loss of enzyme activity”. In the data set with T. ni JHE [6] (dialysis), the “type of inhibition of T. ni JHE” value is “irreversible inhibitor”. Also, in the data set on JH esterase [8], the “in vitro inhibition of juvenile hormone esterase (literature)” value is “potent in vitro inhibition of juvenile hormone esterase”. Besides, in the data set with T. ni larvae [9], the “in vivo activity, topical application to cabbage looper (literature)” value is listed as “disrupt development of the cabbage looper”.

The record behind these values is US4562292A, “Trifluoromethylketone sulfides and reversible enzyme inhibition therewith” (priority 1983, dated 1985).
